Reference: PubChem BioAssay AID1259407 (Chemical Carcinogenesis Research Information System (CCRIS), 2018)
The source made the active and inactive calls. The rule behind the calls is not given here.

Tested on: CCRIS mutagenicity, Ames/micronucleus/aberration tests
Test: CCRIS mutagenicity studies
[1] = Test System: AMES SALMONELLA TYPHIMURIUM, Strain/Indicator: TA98, Metabolic Activation: NONE, Method: PREINCUBATION
[2] = Test System: AMES SALMONELLA TYPHIMURIUM, Strain/Indicator: TA100, Metabolic Activation: NONE, Method: PREINCUBATION
[3] = Test System: AMES SALMONELLA TYPHIMURIUM, Strain/Indicator: TA1535, Metabolic Activation: NONE, Method: PREINCUBATION
[4] = Test System: AMES SALMONELLA TYPHIMURIUM, Strain/Indicator: TA98, Metabolic Activation: RAT, LIVER, S-9, AROCLOR 1254, Method: PREINCUBATION

**Q.** How did the mutagenic call (Test System: AMES SALMONELLA TYPHIMURIUM, Strain/Indicator: TA97, Metabolic Activation: HAMSTER, LIVER, S-9, AROCLOR 1254 (10 OR 30%), Method: PREINCUBATION) turn out when `C=C(C)[C@@]12OC3(c4ccccc4)O[C@@H]1[C@@H]1[C@@H]4OC4(CO)[C@@H](O)[C@]4(O)C(=O)C(C)=C[C@H]4[C@@]1(O3)[C@H](C)[C@H]2OC(=O)/C=C/C=C/c1ccccc1` (stereo partly specified) was run?
**A.** Its mutagenic call is “inactive; negative”.

**Q.** What about the mutagenic call (Test System: AMES SALMONELLA TYPHIMURIUM, Strain/Indicator: TA97, Metabolic Activation: NONE, Method: PREINCUBATION) of the same compound?
**A.** Its mutagenic call is “inactive; negative”.

**Q.** What about the mutagenic call (Test System: AMES SALMONELLA TYPHIMURIUM, Strain/Indicator: TA97, Metabolic Activation: RAT, LIVER, S-9, AROCLOR 1254 (10 OR 30%), Method: PREINCUBATION) of the same compound?
**A.** The mutagenic call was “inactive; negative”.

**Q.** What about the mutagenic call (Test System: AMES SALMONELLA TYPHIMURIUM, Strain/Indicator: TA98, Metabolic Activation: HAMSTER, LIVER, S-9, AROCLOR 1254 (10 OR 30%), Method: PREINCUBATION) of the same compound?
**A.** The mutagenic call was “inactive; negative”.

**Q.** What about the mutagenic call [1] of the same compound?
**A.** Its mutagenic call is “inactive; negative”.

**Q.** And the mutagenic call (Test System: AMES SALMONELLA TYPHIMURIUM, Strain/Indicator: TA98, Metabolic Activation: RAT, LIVER, S-9, AROCLOR 1254 (10 OR 30%), Method: PREINCUBATION)?
**A.** The mutagenic call was “inactive; negative”.

**Q.** What about the mutagenic call (Test System: AMES SALMONELLA TYPHIMURIUM, Strain/Indicator: TA100, Metabolic Activation: HAMSTER, LIVER, S-9, AROCLOR 1254 (10 OR 30%), Method: PREINCUBATION) of the same compound?
**A.** The mutagenic call was “inactive; negative”.

**Q.** What about the mutagenic call [2] of the same compound?
**A.** Its mutagenic call is “inactive; negative”.

**Q.** And the mutagenic call (Test System: AMES SALMONELLA TYPHIMURIUM, Strain/Indicator: TA100, Metabolic Activation: RAT, LIVER, S-9, AROCLOR 1254 (10 OR 30%), Method: PREINCUBATION)?
**A.** The mutagenic call was “inactive; negative”.

**Q.** What about the mutagenic call (Test System: AMES SALMONELLA TYPHIMURIUM, Strain/Indicator: TA1535, Metabolic Activation: HAMSTER, LIVER, S-9, AROCLOR 1254 (10 OR 30%), Method: PREINCUBATION) of the same compound?
**A.** Its mutagenic call is “inactive; negative”.

**Q.** What about the mutagenic call [3] of the same compound?
**A.** The mutagenic call was “inactive; negative”.

**Q.** What about the mutagenic call (Test System: AMES SALMONELLA TYPHIMURIUM, Strain/Indicator: TA1535, Metabolic Activation: RAT, LIVER, S-9, AROCLOR 1254 (10 OR 30%), Method: PREINCUBATION) of the same compound?
**A.** Its mutagenic call is “inactive; negative”.

**Q.** Which mutagenic call (End Point: IN VIVO CHROMOSOMAL ABERRATIONS, Test System: BONE MARROW CELLS, Species: MOUSE, Strain/Sex: SWISS ALBINO/MALE, Route: ORAL) does the source give for `O.O.O.O.O.O.[Cl-].[Cl-].[Co+2]` here?
**A.** The mutagenic call was “active; positive (structural and ploidy changes)”.

**Q.** And the mutagenic call (Test System: CHINESE HAMSTER V-79, Strain/Indicator: SP5 V-79 (HPRT)/6-THIOGUANINE, Metabolic Activation: NONE, Method: STANDARD PLATE)?
**A.** Its mutagenic call is “inactive; negative”.

**Q.** What about the mutagenic call (Test System: CHINESE HAMSTER V-79, Strain/Indicator: SPD8 V-79 (HPRT)/6-THIOGUANINE, Metabolic Activation: NONE, Method: STANDARD PLATE) of the same compound?
**A.** The mutagenic call was “active; positive”.

**Q.** How did the mutagenic call (End Point: IN VITRO CHROMOSOMAL ABERRATIONS, Test System: CHINESE HAMSTER OVARY CELLS, Metabolic Activation: NONE) turn out when `Nc1nc(N)nc(N)n1` was run?
**A.** The mutagenic call was “inactive; negative”.

**Q.** And the mutagenic call (End Point: IN VITRO CHROMOSOMAL ABERRATIONS, Test System: CHINESE HAMSTER OVARY CELLS, Metabolic Activation: RAT, LIVER, S-9, AROCLOR 1254)?
**A.** The mutagenic call was “inactive; negative”.

**Q.** And the mutagenic call (Test System: AMES SALMONELLA TYPHIMURIUM, Strain/Indicator: TA98, Metabolic Activation: HAMSTER, LIVER, S-9, AROCLOR 1254, Method: PREINCUBATION)?
**A.** Its mutagenic call is “inactive; negative”.

**Q.** And the mutagenic call [1]?
**A.** Its mutagenic call is “inactive; negative”.

**Q.** What about the mutagenic call [4] of the same compound?
**A.** The mutagenic call was “inactive; negative”.

**Q.** What about the mutagenic call (Test System: AMES SALMONELLA TYPHIMURIUM, Strain/Indicator: TA100, Metabolic Activation: HAMSTER, LIVER, S-9, AROCLOR 1254, Method: PREINCUBATION) of the same compound?
**A.** Its mutagenic call is “inactive; negative”.

**Q.** What about the mutagenic call [2] of the same compound?
**A.** The mutagenic call was “inactive; negative”.

**Q.** What about the mutagenic call (Test System: AMES SALMONELLA TYPHIMURIUM, Strain/Indicator: TA100, Metabolic Activation: RAT, LIVER, S-9, AROCLOR 1254, Method: PREINCUBATION) of the same compound?
**A.** The mutagenic call was “inactive; negative”.

**Q.** What about the mutagenic call (Test System: AMES SALMONELLA TYPHIMURIUM, Strain/Indicator: TA1535, Metabolic Activation: HAMSTER, LIVER, S-9, AROCLOR 1254, Method: PREINCUBATION) of the same compound?
**A.** Its mutagenic call is “inactive; negative”.

**Q.** What about the mutagenic call [3] of the same compound?
**A.** The mutagenic call was “inactive; negative”.

**Q.** And the mutagenic call (Test System: AMES SALMONELLA TYPHIMURIUM, Strain/Indicator: TA1535, Metabolic Activation: RAT, LIVER, S-9, AROCLOR 1254, Method: PREINCUBATION)?
**A.** Its mutagenic call is “inactive; negative”.

**Q.** What about the mutagenic call (Test System: AMES SALMONELLA TYPHIMURIUM, Strain/Indicator: TA1537, Metabolic Activation: HAMSTER, LIVER, S-9, AROCLOR 1254, Method: PREINCUBATION) of the same compound?
**A.** The mutagenic call was “inactive; negative”.

**Q.** And the mutagenic call (Test System: AMES SALMONELLA TYPHIMURIUM, Strain/Indicator: TA1537, Metabolic Activation: NONE, Method: PREINCUBATION)?
**A.** The mutagenic call was “inactive; negative”.

**Q.** What about the mutagenic call (Test System: AMES SALMONELLA TYPHIMURIUM, Strain/Indicator: TA1537, Metabolic Activation: RAT, LIVER, S-9, AROCLOR 1254, Method: PREINCUBATION) of the same compound?
**A.** The mutagenic call was “inactive; negative”.

**Q.** And the mutagenic call (Test System: UDS RAT HEPATOCYTES, Strain/Indicator: BROMODEOXYURIDINE INCORP, Metabolic Activation: NONE, Method: FLOW CYTOMETRIC ANALYSIS)?
**A.** Its mutagenic call is “inactive; negative”.

**Q.** And the mutagenic call (Test System: UDS RAT HEPATOCYTES, Strain/Indicator: THY INCORP, Metabolic Activation: NONE, Method: AUTORADIOGRAPHY)?
**A.** Its mutagenic call is “inactive; negative”.

**Q.** What does the source list for `CC(=O)Nc1ccc(Oc2ccc(N=O)cc2)cc1`?
**A.** mutagenic call (Test System: AMES SALMONELLA TYPHIMURIUM, Strain/Indicator: TA98(1,8-DNP6), Metabolic Activation: NONE, Method: PREINCUBATION): active; positive; mutagenic call (Test System: AMES SALMONELLA TYPHIMURIUM, Strain/Indicator: TA98(1,8-DNP6), Metabolic Activation: RAT, LIVER, S-9, AROCLOR 1254, Method: PREINCUBATION): active; positive; mutagenic call (Test System: AMES SALMONELLA TYPHIMURIUM, Strain/Indicator: TA98(NR), Metabolic Activation: NONE, Method: PREINCUBATION): active; positive; mutagenic call (Test System: AMES SALMONELLA TYPHIMURIUM, Strain/Indicator: TA98(NR), Metabolic Activation: RAT, LIVER, S-9, AROCLOR 1254, Method: PREINCUBATION): active; positive; mutagenic call [1]: active; positive; mutagenic call [4]: active; positive; mutagenic call (Test System: AMES SALMONELLA TYPHIMURIUM, Strain/Indicator: TA100(NR), Metabolic Activation: NONE, Method: PREINCUBATION): active; positive; mutagenic call [2]: active; positive

**Q.** `CC1(C)O[C@H]1COc1c2ccoc2cc2oc(=O)ccc12` was tested. Which mutagenic call (Test System: AMES SALMONELLA TYPHIMURIUM, Strain/Indicator: TA92, Metabolic Activation: NONE, Method: SPOT TEST) did it give?
**A.** The mutagenic call was “inactive; negative”.

**Q.** And the mutagenic call (Test System: AMES SALMONELLA TYPHIMURIUM, Strain/Indicator: TA92, Metabolic Activation: RAT, LIVER, S-9, AROCLOR 1254, Method: SPOT TEST)?
**A.** The mutagenic call was “inactive; negative”.

**Q.** What about the mutagenic call (Test System: AMES SALMONELLA TYPHIMURIUM, Strain/Indicator: TA94, Metabolic Activation: NONE, Method: SPOT TEST) of the same compound?
**A.** Its mutagenic call is “inactive; negative”.

**Q.** And the mutagenic call (Test System: AMES SALMONELLA TYPHIMURIUM, Strain/Indicator: TA94, Metabolic Activation: RAT, LIVER, S-9, AROCLOR 1254, Method: SPOT TEST)?
**A.** Its mutagenic call is “inactive; negative”.

**Q.** What about the mutagenic call (Test System: AMES SALMONELLA TYPHIMURIUM, Strain/Indicator: TA97, Metabolic Activation: NONE, Method: SPOT TEST) of the same compound?
**A.** The mutagenic call was “inactive; negative”.

**Q.** What about the mutagenic call (Test System: AMES SALMONELLA TYPHIMURIUM, Strain/Indicator: TA97, Metabolic Activation: RAT, LIVER, S-9, AROCLOR 1254, Method: SPOT TEST) of the same compound?
**A.** Its mutagenic call is “inactive; negative”.

**Q.** What about the mutagenic call (Test System: AMES SALMONELLA TYPHIMURIUM, Strain/Indicator: TA98, Metabolic Activation: NONE, Method: SPOT TEST) of the same compound?
**A.** The mutagenic call was “inactive; negative”.

**Q.** What about the mutagenic call (Test System: AMES SALMONELLA TYPHIMURIUM, Strain/Indicator: TA98, Metabolic Activation: RAT, LIVER, S-9, AROCLOR 1254, Method: SPOT TEST) of the same compound?
**A.** Its mutagenic call is “inactive; negative”.

**Q.** What about the mutagenic call (Test System: AMES SALMONELLA TYPHIMURIUM, Strain/Indicator: TA100, Metabolic Activation: NONE, Method: SPOT TEST) of the same compound?
**A.** The mutagenic call was “inactive; negative”.

**Q.** What about the mutagenic call (Test System: AMES SALMONELLA TYPHIMURIUM, Strain/Indicator: TA100, Metabolic Activation: RAT, LIVER, S-9, AROCLOR 1254, Method: SPOT TEST) of the same compound?
**A.** The mutagenic call was “inactive; negative”.

**Q.** And the mutagenic call (Test System: AMES SALMONELLA TYPHIMURIUM, Strain/Indicator: TA102, Metabolic Activation: NONE, Method: SPOT TEST)?
**A.** Its mutagenic call is “inactive; negative”.

**Q.** And the mutagenic call (Test System: AMES SALMONELLA TYPHIMURIUM, Strain/Indicator: TA102, Metabolic Activation: RAT, LIVER, S-9, AROCLOR 1254, Method: SPOT TEST)?
**A.** Its mutagenic call is “inactive; negative”.
